The values below come from patent publication US9539221B2, “Method of treating airway diseases with β-adrenergic inverse agonists” (EGB ADVISORS, LLC, priority 2003, dated 2017).

The target in data set [1] is β2-adrenergic receptor (Mus musculus, UniProt P18762). The data set can be described thus: β-adrenergic receptor density in lung membranes of treated asthmatic mice by ICYP radioligand binding. The class given is in vivo. As to conditions: for Bmax (β-adrenergic receptor density): 15 Minutes drug treatment. As to the method: (§1) β2-adrenergic receptor numbers were measured in asthmatic mice as follows. […] Mice were sacrificed and lung membranes were isolated as follows. Frozen lung tissue was homogenized in an ice-cold buffer containing 0.32 M sucrose and 25 mM Tris (pH 7.4) using a polytron (Pro 200, Pro Scientific, Inc.). The homogenate was centrifuged at 1000×g for 10 min at 4° C. The resulting supernatant was centrifuged at 40,000×g for 20 min at 4° C. The pellet was suspended in an ice-cold 25 mM Tris-HCl buffer (pH 7.4) and centrifuged at 40,000×g for 20 min at 4° C. The final pellet was suspended in 200 μL of 25 mM Tris-HCl (pH 7.4); membrane protein concentration was determined by BCA protein assay kit. […] The incubation was done at 37° C. for 2 h and terminated by rapid vacuum filtration through glass fiber filters. The filters were washed three times with 250 μL of cold wash buffer (25 mM Tris-HCl, pH 7.4) and the radioactivity determined in a counter. […] Receptor densities are expressed as femtomoles of sites per milligram of protein. Bmax is determined by nonlinear regression of the saturation binding curves.
Chain of β2-adrenergic receptor (Mus musculus, UniProt P18762) (P18762 whole entry): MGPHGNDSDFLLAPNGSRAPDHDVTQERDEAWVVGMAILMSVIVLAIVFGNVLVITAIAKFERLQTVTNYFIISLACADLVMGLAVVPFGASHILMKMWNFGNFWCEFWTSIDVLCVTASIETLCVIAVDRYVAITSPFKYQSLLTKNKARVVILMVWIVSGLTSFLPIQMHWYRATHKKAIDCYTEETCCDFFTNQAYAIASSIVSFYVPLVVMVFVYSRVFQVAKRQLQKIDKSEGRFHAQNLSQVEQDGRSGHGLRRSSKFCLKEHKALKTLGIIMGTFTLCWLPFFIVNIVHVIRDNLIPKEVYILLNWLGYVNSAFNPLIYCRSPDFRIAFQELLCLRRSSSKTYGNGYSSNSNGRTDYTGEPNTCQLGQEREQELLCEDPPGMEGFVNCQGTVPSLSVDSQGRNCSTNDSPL

In data set [2] the test system is β2-adrenergic receptor. The data set is described as above. The class given is in vivo. As to conditions: 2 days of administration. As to the method: as §1
Data set [3] relates to asthmatic mice. The experiment in a line: Airway resistance (Raw) response to methacholine provocation in murine model of asthma (forced oscillation). The class given is in vivo, Balb/cJ mice. The procedure:
Balb/cJ mice aged 6 weeks (Jackson Animal Laboratory, Bar Harbor, Me.) were housed under specific pathogen-free conditions and fed a chicken ovalbumin-free diet. The Animal Research Ethics Boards of both the University of Houston and the Baylor College of Medicine approved all experiments reported here. […] Mice were sensitized with subcutaneous injection of 25 μg of ovalbumin adsorbed to aluminum hydroxide on protocol days 2, 9, and 16. Subsequently, mice were given 50 μL of saline solution containing 25 μg of ovalbumin intranasally, on a daily basis, from protocol days 23 through 27. A group of ovalbumin-sensitized saline-challenged mice serves as controls for systemic sensitization and respiratory challenges with ovalbumin. Prior to intranasal administrations, mice were sedated with halothane vapor.
To examine the effects of duration of β-adrenergic ligand therapy on the phenotype of the murine model of asthma, the experimental drugs were administered either acutely or chronically to different groups of asthmatic mice.
Asthmatic mice on acute therapy were given a single intravenous bolus infusion of either β-adrenergic drug or normal saline on protocol day 28, 15 minutes before airway responsiveness to methacholine was determined. […] Asthmatic mice on chronic therapy were treated with the β-adrenergic drug during protocol days 1 to 28. […] These concentrations were chosen based on those producing therapeutic effects in mice in previously published studies. The non-asthmatic mice were fed normal chow.
On protocol day 28, mice were anesthetized, tracheotomized, and connected to a computer-controlled small animal ventilator (Flexivent, Scientific Respiratory Equipment, Inc., Montreal, Canada). Airway resistance (Raw) was measured using the forced oscillation technique. The cellular composition of bronchoalveolar lavage fluid (BALF) was also determined.
To induce airway constriction, a solution containing 150 μg/mL of acetyl-α-methylcholine chloride (methacholine) (Sigma Chemical, St. Louis, Mo.) was infused intravenously at constant rates using a syringe infusion pump (Raze Scientific Instruments, Stanford, Conn.). […] Each methacholine dose was administered for 3 to 5 minutes, during which data were sampled at 1-minute intervals and then averaged.
The complex input impedance of the respiratory system was computed and the value of the real part of respiratory system impedance at 19.75 Hz was taken to reflect the magnitude of airway resistance (Raw). To examine the degree of airway responsiveness of each animal, the values for Raw as a function of methacholine doses were plotted. The largest value for Raw achieved in response to methacholine stimulation was referred to as Rawpeak. For mice that achieved a plateau in the methacholine dose-Raw response curve, the ED50 was calculated by linear interpolation using the GraphPad Prism4 (GraphPad Software, Inc.). […] The Bonferroni test was used to examine the statistical differences between experimental groups. The effects of acute drug treatments on baseline respiratory system mechanics were assessed using a two-tailed paired t-test. A value of P<0.05 was considered significant.
For these experiments, salbutamol was used for chronic administration at 0.5 mg/kg/day with a minipump and for acute administration at 0.15 mg/kg by i.v. bolus 15 minutes prior to challenge. Alprenolol was used at a high dose of 7200 ppm in chow or at a low dose of 720 ppm in chow. Carvedilol was used at a high dose of 2400 ppm in chow or at a low dose of 720 ppm in chow.

Data set [4] concerns tracheas from the mice. Particulars: asthmatic mice chronically treated; WO 02/29534; cited from earlier work.
Data set [5] deals with patients with CHF. Particulars: cited from earlier work.
The test system of data set [6] is asthmatic mice. The data set can be described thus: Combination therapy carvedilol and salbutamol on airway hyperresponsiveness. Format: in vivo, Balb/cJ mice. As to conditions: 28 days carvedilol 2400 ppm in chow, alone or with salbutamol chronic (0.5 mg/kg/day) or acute ([…]); highest dose of methacholine. As to the method: Mice (Balb/cJ) aged 6 weeks were housed under specific pathogen-free conditions and fed a chicken ovalbumin-free diet. Mice were systemically sensitized with ovalbumin adsorbed to aluminum hydroxide. Mice were treated as follows: CAR/SAL 28D=for 28 days mice (n=6-12) were administered carvedilol (2400 ppm in animal chow) and salbutamol (subcutaneous delivery of 0.5 mg/kg/day in an Alzet #2400 osmotic minipump); NTX S/C=mice (n=6-12) no drug treatment for 28 days; CTRL=mice (n=6-12) no drug treatment for 28 days, not subsequently challenged; CARHD 28D=for 28 days mice (n=6-12) were administered carvedilol only (2400 ppm in animal chow); CARHD 28D SAL AC=for 28 days mice (n=6-12) were administered carvedilol (2400 ppm in animal chow) and 15 minutes prior to measuring airway hyperresponsiveness, salbutamol was administered at a dose of […].
To measure airway hyperresponsiveness after 28 days, all mice except the CTRL (control) mice were challenged with ovalbumin and then all mice were anesthetized, tracheotomized, and connected to a Flexivent small animal ventilator to measure airway resistance (Raw) by the forced oscillation technique. To induce airway constriction, a solution containing 150 μg/mL of methacholine was infused using a syringe infusion pump. The methacholine infusion was started at 0.008 mL/min and its rate was doubled stepwise up to a maximum […]. […]

The test system of data set [7] is β-adrenergic receptor. As to conditions: U.S. Pat. No. 5,116,867; cited from earlier work.
For data set [8] the following is noted: acute administration; cited from earlier work.
The conditions of data set [9]: cited from earlier work.
Data set [10] deals with sensitized and allergen-challenged mice. The experiment in a line: Acute nadolol with aminophylline, methacholine-induced bronchoconstriction. Particulars: aminophylline 100 mg/kg i.p. during methacholine; untreated and nadolol-treated mice. Format: in vivo. As to the method: Mice were sensitized to the allergen ovalbumin as described in Example 1. […] At time point 1 (time=−10 min) baseline airway resistance of the mice was determined. At time point 2 (time=−5 min) methacholine was infused into mice to reach their EC70.

Data set [11] deals with asthmatic mice. The experiment in a line: Airway resistance (Raw) response to methacholine provocation in murine model of asthma (forced oscillation). Format: in vivo, Balb/cJ mice. Particulars: 7 days, metoprolol 20 mg/kg 3× daily subcutaneous, timolol 20 mg/kg in chow.
For data set [12] the following is noted: large trial; cited from earlier work.
[13] abbreviates: lung membranes of asthmatic mice, mean±SEM.
Setting [14] is: 28 Days drug treatment, lung membranes of asthmatic mice, mean±SEM.
Where [15] appears, read: asthmatic mice, chronic: 28 days (chow; salbutamol by osmotic minipump).

“Also recorded” adds a separate entry of the source.

`C=CCc1ccccc1OCC(O)CNC(C)C` (stereo not shown) [Alprenolol, alprenolol]: the “Bmax (β-adrenergic receptor density)” value in [1] (setting [13]) was 299.5 ± 12.19 femtomoles of sites per milligram of protein. Further, in data set [1] (setting [14]), the “βmax (β-adrenergic receptor density)” value is reported as 179.2 ± 53.05 femtomoles of sites per milligram of protein. For the same compound, the “Increased β2AR density” value in [2] is listed as “no”. The “airway responsiveness to methacholine provocation (airway resistance, Raw)” value (“airway responsiveness” below) in [3] (setting [15]) is on record as “does not reduce airway hyperresponsiveness compared to untreated asthmatic mice; also recorded: provides no benefit upon chronic administration”. Besides, the “effectiveness on contraction of excised tracheas in response to methacholine (rank)” value in data set [4] is recorded as “most effective compound”.
In the case of `CC(C)(Cc1c[nH]c2ccccc12)NCC(O)COc1ccccc1C#N` (stereo not shown) [Bucindolol, bucindolol], the “clinical benefit in congestive heart failure” value (shortened to “clinical benefit”) in [5] is listed as “failed to demonstrate any benefit over placebo”.
Take `COc1ccccc1OCCNCC(O)COc1cccc2[nH]c3ccccc3c12` (stereo not shown) [Carvedilol, carvedilol]: the “Bmax (β-adrenergic receptor density)” value in data set [1] (setting [13]) is reported as 86.3 ± 19.42 femtomoles of sites per milligram of protein. Further, the “βmax (β-adrenergic receptor density)” value in [1] (setting [14]) is recorded as 904.1 ± 43.46 femtomoles of sites per milligram of protein. In addition, the “Increased β2AR density” value is listed as “showed an increase in receptor density” in [1] (28 days of administration) and “no” in data set [2]. The “increase of the level of β2-adrenergic receptors over the non-treated mice” value in [1] (chronic administration, versus untreated methacholine-challenged asthmatic mice) was “over 10 fold”. Moreover, in data set [3] (asthmatic mice, chronic administration), the “sensitivity of the responsiveness to methacholine” value was “shifts the sensitivity of the responsiveness to methacholine to lower concentrations”. Moreover, in data set [3] (setting [15]), the “airway responsiveness” value was “does reduce airway hyperresponsiveness; also recorded: reduced the responsiveness of asthmatic mice to methacholine provocation”. Also, the “protection from airway hyperresponsiveness” value in data set [3] (chronic administration, high and low dose in chow (Example 6)) is on record as “providing protection from airway hyperresponsiveness”. In data set [6], the “bronchoconstriction / airway hyperresponsiveness to methacholine” value was “higher bronchoconstriction than these treatments but less than the non-drug treated sensitized and challenged (NTX S/C) mice”. Also, in data set [5], the “clinical benefit” value is recorded as “significant mortality reduction”.
In the case of `CC(C)NC[C@@H](O)COc1cccc2ccccc12` [D-propranolol], in [7], the “potency in inhibiting the β-adrenergic receptor relative to the L-form” value is given as 1/100. Further, the “antigen-induced bronchoconstriction and airway hyperresponsiveness” value in data set [8] is “beneficial in inhibiting antigen-induced bronchoconstriction and reducing airway hyperresponsiveness”.
With `Cc1ccc(OCC(O)C(C)NC(C)C)c2c1CCC2` (stereo not shown) [ICI-118,551], the “effectiveness on contraction of excised tracheas in response to methacholine (rank)” value in data set [4] was “then ICI-118,551”.
For `CC(C)NC[C@H](O)COc1cccc2ccccc12` [L-form, propranolol], the specific lung resistance result in data set [8] is on record as “increased specific lung resistance”.
For the compound `CC(C)(C)NCC(O)c1ccc(O)c(CO)c1` (stereo not shown) [Salbutamol, salbutamol], in data set [9] (10 patients with cystic fibrosis versus healthy adults), the “bioavailability of inhaled drug” value was “greater than that in healthy adults”. The “Bmax (β-adrenergic receptor density)” value in data set [1] (setting [13]) is reported as 256.5 ± 29.24 femtomoles of sites per milligram of protein. In addition, in data set [1] (setting [14]), the “βmax (β-adrenergic receptor density)” value is listed as 97.0 ± 23.02 femtomoles of sites per milligram of protein. For the same compound, the Kd in [1] (28 Days drug treatment, lung membranes of asthmatic mice, mean±SEM, read-out: KD (apparent, of radioligand ICYP)) worked out at 0.225 nM. For the same compound, in data set [2], the “Increased β2AR density” value is “no”. The “airway responsiveness” value was “reduced the level of airway responsiveness to methacholine provocation and the level of airway resistance” in data set [3] (asthmatic mice, acute: single intravenous bolus 15 minutes before methacholine); “no protection was observed” in data set [3] (setting [15]).
With `Cn1c(=O)c2[nH]cnc2n(C)c1=O` [aminophylline], in data set [10], the “airway resistance after aminophylline administration” value was “significant and sustained drop in airway resistance; also recorded: can alleviate the acute effects on airway hyperresponsiveness of nadolol administration”.
With `CCCC1O[C@@H]2C[C@H]3[C@@H]4CCC5=CC(=O)C=C[C@]5(C)[C@H]4[C@@H](O)C[C@]3(C)[C@]2(C(=O)CO)O1` (stereo partly shown) [budesonide], the “plasma clearance of the 2 enantiomers per kilogram of bodyweight, children versus adults” value in data set [9] (6 children with asthma versus 11 healthy adults) is given as “about 50%”.
As for `COCCc1ccc(OCC(O)CNC(C)C)cc1` (stereo not shown) [metoprolol], in data set [11], the “airway hyperresponsiveness (Raw) to methacholine” value was “effective in reducing airway hyperresponsiveness in asthmatic mice”. Also, the “clinical benefit” value in data set [5] was “significant mortality reduction”.
For the compound `OCc1cc(C(O)CNCCCCCCOCCCCc2ccccc2)ccc1O` (stereo not shown) [salmeterol], the death rates result in [12] is on record as “stopped due to increased death rates”.
Regarding `CC(C)(C)NCC(O)c1cc(O)cc(O)c1` (stereo not shown) [terbutaline], in data set [9] (healthy smokers versus healthy nonsmokers), the “rate of absorption through the lung” value is given as “more rapidly in healthy smokers than in healthy nonsmokers”.
On to `CC(C)(C)NC[C@H](O)COc1nsnc1N1CCOCC1` [timolol], for which the “airway hyperresponsiveness (Raw) to methacholine” value in data set [11] is on record as “effective in reducing airway hyperresponsiveness in asthmatic mice”.
